Values quoted from earlier work as cited in patent publication US11017689B2, “Very low nicotine cigarette blended with very low THC cannabis” (priority 2018, dated 2021).

Legend:
[1] = system: nicotine self-administration; conditions: rats
[2] = system: nicotinic acetylcholine receptors (nAChRs)
[3] = administered orally to rats
[4] = nicotine in tobacco smoke, inhaled

| Compound | dose-effect function on nicotine self-administration [1] | reduction of nicotine infusions per session ([1]; 2.0 mg/kg of anabasine) | increase in nicotine self-administration ([1]; pretreatment with 0.02 mg/kg anabasine) [%] | affinity for nicotinic acetylcholine receptors (nAChRs) [2] | elimination half-life relative to that of nicotine [3] [fold] | reduction of nicotine self-administration ([1]; pretreatment with 2.0 mg/kg anatabine) | time from inhaling the smoke until nicotine reaches the brain [4] |
| --- | --- | --- | --- | --- | --- | --- | --- |
| c1cncc([C@@H]2CCCCN2)c1 [anabasine] | biphasic | over 50% | 25 | affinity | – | – | – |
| C1=CCC(c2cccnc2)NC1 (centres unmarked) [anatabine] | – | – | – | affinity | 2 to 2.5 | nearly half | – |
| CN1CCCC1c1cccnc1 (centres unmarked) [nicotine] | – | – | – | – | – | – | approximately ten |
